Data: PubChem BioAssay (NCI)
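Method: 48-hour compound exposure of cells in 96-well plates, five concentrations, linear interpolation of endpoints. Abbreviation: GI50, concentration required for 50% inhibition of growth. The concentration for full growth arrest is given as TGI.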

How the values were obtained:
Assay in all cases: inhibition of tumour cell growth, NCI panel, 48 h
[1] = tested on: BT-549 breast
[2] = tested on: NCI-H226 lung
[3] = tested on: OVCAR-3 ovarian
[4] = tested on: OVCAR-5 ovarian
[5] = tested on: RPMI-8226 leukemia
[6] = tested on: SF-295 CNS
[7] = tested on: SK-MEL-28 melanoma
[8] = tested on: SNB-75 CNS
[9] = tested on: SW-620 colon
[10] = tested on: TK-10 renal

## COc1cc2c3c(n(CCCCN)c(=O)c2cc1OC)-c1cc2c(cc1C3=O)OCO2
[1]
  GI50: 1.17 µM
  TGI: 4.84 µM
[2]
  GI50: 0.492 µM
  TGI: 1.58 µM
[3]
  GI50: 1.01 µM
  TGI: 2.67 µM
[4]
  GI50: 4.97 µM
  TGI: 12.3 µM
[5]
  GI50: 0.351 µM
  TGI: 1.31 µM
[6]
  GI50: 0.274 µM
  TGI: 2.81 µM
[7]
  GI50: 1.56 µM
  TGI: 12.4 µM
[8]
  GI50: 0.778 µM
  TGI: 5.5 µM
[9]
  GI50: 0.0851 µM
  TGI: 2.3 µM
[10]
  GI50: 3.84 µM
  TGI: 8.48 µM

## NC(=O)c1ccc(I)c(N=O)c1
[1]
  GI50: 40.3 µM
  TGI: > 100 µM
[2]
  GI50: 58.8 µM
  TGI: > 100 µM
[3]
  GI50: 27.4 µM
  TGI: 71.5 µM
[4]
  GI50: 71.9 µM
  TGI: > 100 µM
[5]
  GI50: 36.9 µM
  TGI: 88.7 µM
[6]
  GI50: > 100 µM
  TGI: > 100 µM
[7]
  GI50: 46.9 µM
  TGI: > 100 µM
[8]
  GI50: 19.9 µM
  TGI: 69.4 µM
[9]
  GI50: 18.3 µM
  TGI: 33.3 µM
[10]
  GI50: 34.9 µM
  TGI: > 100 µM

## COc1cc(Nc2c(C#N)cnc3cc(OCCCN4CCN(C)CC4)c(OC)cc23)c(Cl)cc1Cl
[1]
  GI50: 6.78 µM
  TGI: 18.3 µM
[2]
  GI50: 12.1 µM
  TGI: 34.5 µM
[3]
  GI50: 2.78 µM
  TGI: 14.4 µM
[4]
  GI50: 1.19 µM
  TGI: 16.2 µM
[5]
  GI50: 5.32 µM
  TGI: 13.9 µM
[6]
  GI50: 7.55 µM
  TGI: 21 µM
[7]
  GI50: 2.13 µM
  TGI: 5.08 µM
[8]
  GI50: 0.707 µM
  TGI: 8.38 µM
[9]
  GI50: 3.26 µM
  TGI: 11.4 µM
[10]
  GI50: 0.469 µM
  TGI: 11.3 µM

## CNC(=O)c1cccc2cc(Oc3ccnc4cc(OCC5(N)CC5)c(OC)cc34)ccc12
[1]
  GI50: 5.63 µM
  TGI: 22.1 µM
[2]
  GI50: 1.02 µM
  TGI: 23.2 µM
[3]
  GI50: 8.86 µM
  TGI: 23.7 µM
[4]
  GI50: 6.94 µM
  TGI: 19.3 µM
[5]
  GI50: 12.9 µM
  TGI: 39.7 µM
[6]
  GI50: 10.1 µM
  TGI: 25 µM
[7]
  GI50: 10.4 µM
  TGI: 30.3 µM
[8]
  GI50: 0.76 µM
  TGI: 15.5 µM
[9]
  GI50: 5.96 µM
  TGI: 20.5 µM
[10]
  GI50: 12.9 µM
  TGI: 26.6 µM

## COc1cc2oc3cc(=O)cc4oc(-c5ccccc5)cc(c2c2c1CCC(c1ccccc1)O2)c43 (stereo not given)
[1]
  TGI: > 100 µM
[2]
  TGI: > 100 µM
[3]
  TGI: 77.6 µM
[4]
  TGI: > 100 µM
[5]
  TGI: 20.9 µM
[6]
  TGI: 54.9 µM
[7]
  TGI: > 100 µM
[8]
  TGI: > 100 µM
[9]
  TGI: > 100 µM
[10]
  TGI: 83.4 µM

## c1csc(-c2cn3nc(-c4c[nH]c5ccccc45)sc3n2)c1
[1]
  GI50: 2.87 µM
  TGI: 31.7 µM
[2]
  GI50: 9.94 µM
  TGI: > 100 µM
[3]
  GI50: 0.924 µM
  TGI: 9.02 µM
[4]
  GI50: 4.27 µM
  TGI: 76.4 µM
[5]
  GI50: 1.47 µM
  TGI: 15.4 µM
[6]
  GI50: 1.74 µM
  TGI: 6.44 µM
[7]
  GI50: 4.74 µM
  TGI: 44 µM
[8]
  GI50: 0.445 µM
  TGI: 8.09 µM
[9]
  GI50: 0.434 µM
  TGI: > 100 µM
[10]
  GI50: 5.21 µM
  TGI: 33.5 µM

## COC(=O)[C@@]12OC[C@]34[C@H]([C@@H](O)[C@@H]1O)[C@@]1(C)[C@H](O)C(=O)C=C(C)[C@@H]1C[C@H]3OC(=O)C(OC(C)=O)[C@@H]24 (stereo not given in full)
[1]
  GI50: 0.0182 µM
  TGI: 0.0561 µM
[2]
  GI50: 0.025 µM
  TGI: 0.0992 µM
[3]
  GI50: 0.0248 µM
  TGI: 0.0714 µM
[4]
  GI50: 0.069 µM
  TGI: 0.41 µM
[5]
  GI50: 0.017 µM
  TGI: 0.0396 µM
[6]
  GI50: 0.0241 µM
  TGI: 0.0847 µM
[7]
  GI50: 0.019 µM
  TGI: 0.0642 µM
[8]
  GI50: 0.0273 µM
  TGI: 0.121 µM
[9]
  GI50: 0.0242 µM
  TGI: 0.128 µM
[10]
  GI50: 0.0374 µM
  TGI: 0.197 µM

## CC1OC(n2c3ccccc3c3c4c(c5c6ccccc6[nH]c5c32)C(=O)N(CCN[C@@H]2CCC[C@H]2N)C4=O)CC(O)C1O (stereo not given in full)
[1]
  GI50: 1.74 µM
  TGI: 8.85 µM
[2]
  GI50: 1.79 µM
  TGI: 8.82 µM
[3]
  GI50: 1.71 µM
  TGI: 6.82 µM
[4]
  GI50: 3.66 µM
  TGI: 11.6 µM
[5]
  GI50: 1.14 µM
  TGI: 2.89 µM
[6]
  GI50: 1.74 µM
  TGI: 7.04 µM
[7]
  GI50: 2.65 µM
  TGI: 9.59 µM
[8]
  GI50: 0.918 µM
  TGI: 5.68 µM
[9]
  GI50: 1.05 µM
  TGI: 5.71 µM
[10]
  GI50: 2.98 µM
  TGI: 11 µM

## O=S(=O)(Nc1ccc(Br)c(Cl)c1)c1ccc(-c2cnc(C3CC3)o2)cc1
[1]
  GI50: 0.682 µM
  TGI: 17.8 µM
[2]
  GI50: 1.23 µM
  TGI: 18.8 µM
[3]
  GI50: 0.37 µM
  TGI: 7.32 µM
[4]
  GI50: 1.97 µM
  TGI: 14.1 µM
[5]
  GI50: 0.585 µM
  TGI: 64.8 µM
[6]
  GI50: 0.343 µM
  TGI: 3.41 µM
[7]
  GI50: 4.35 µM
  TGI: 22 µM
[8]
  GI50: 0.196 µM
  TGI: 0.662 µM
[9]
  GI50: 0.392 µM
  TGI: 15.4 µM
[10]
  GI50: 2.89 µM
  TGI: 20.6 µM
